Measured values reported in patent publication US20240391862A1, “(1,4,5-TRISUBSTITUTED-1H-PYRAZOL-3-YL)OXY-2-ALKOXY ALKYL ACIDS AND THEIR DERIVATIVES, THEIR SALTS AND THEIR USE AS HERBICIDAL AGENTS” (Bayer AKtiengesellschaft, priority 2021, published 2024).

How the values were obtained:
[1] = system: ZEAMX; test: Post-emergence herbicidal effect and crop plant compatibility, greenhouse pot test; assay type: in vivo, Zea mays; settings: one-leaf stage, rated visually after about 3 weeks vs untreated controls
In short: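 Greenhouse pot test: weeds and crops sown in sandy loam, sprayed post-emergence at one-leaf stage (2–3 weeks after sowing) with WP or EC formulations plus 0.5% additive at 600 l/ha water, rates 20–320 g/ha. Visual rating about 3 weeks later versus untreated controls (100% = dead, 0% = as control).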

[2] = system: ORYSA; test: as above; assay type: in vivo, Oryza sativa; settings: 20 g/ha, visual rating about 3 weeks after treatment, crop plant
Source text: • ALOMY: Alopecurus myosuroides SETVI: Setaria viridis • AVEFA: Avena fatua POLCO: Fallopia convolvulus • AMARE: Amaranthus retroflexus ECHCG: Echinochloa crus-galli • LOLRJ: Lolium rigidum STEME: Stellaria media • VERPE: Veronica persica MATIN: Tripleurospermum inodorum • DIGSA: Digitaria sanguinalis ABUTH: Abutylon threophrasti • TRZAS: Triticum aestivum VIOTR: Viola tricolor • BRSNW: Brassica napus ZEAMX: Zea mays • PHBPU: Ipomoea purpurea GLXMA: Glycine max • ORYSA: Oryza sativa HORMU: Hordeum murinum
Seeds of monocotyledonous and dicotyledonous weeds and crop plants are placed in sandy loam in plastic or organic planting pots, covered with soil and cultivated in a greenhouse under controlled growth conditions. 2 to 3 weeks after sowing, the trial plants are treated at the one-leaf stage. The compounds of the invention, formulated in the form of wettable powders (WP) or as emulsion concentrates (EC), are then sprayed onto the green parts of the plants as aqueous suspension or emulsion with addition of 0.5% additive at a water application rate of 600 l/ha (converted). After the test plants have been kept in the greenhouse under optimum growth conditions for about 3 weeks, the activity of the preparations is rated visually in comparison to untreated controls. For example, 100% activity=the plants have died, 0% activity=like control plants.
Tables 20a to 38c below show the effects/crop compatibilities of selected compounds of the general formula (I) on various harmful plants at an application rate corresponding to 20 to 320 g/ha, which were obtained by the trial procedure specified above.

[3] = system: ABUTH; test: Post-emergence herbicidal effect, greenhouse pot test; assay type: in vivo, Abutilon theophrasti; settings: visual rating about 3 weeks after treatment
In short: (§1)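 Sandy loam pots, greenhouse. One-leaf stage (2–3 wk after sowing) foliar spray; WP/EC in water + 0.5% additive, 600 l/ha; 20–320 g/ha. Visual score ~3 wk, 0–100% vs untreated.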

[4] = system: ALOMY; test: as above; assay type: in vivo, Alopecurus myosuroides; settings: visual rating about 3 weeks after treatment
In short: as §1

[5] = system: AMARE; test: as above; assay type: in vivo, Amaranthus retroflexus; settings: visual rating about 3 weeks after treatment
In short: as §1

[6] = system: AVEFA; test: as above; assay type: in vivo, Avena fatua; settings: 320 g/ha, visual rating about 3 weeks after treatment
In short: as §1

[7] = system: DIGSA; test: as above; assay type: in vivo, Digitaria sanguinalis; settings: visual rating about 3 weeks after treatment
In short: as §1

[8] = system: ECHCG; test: as above; assay type: in vivo, Echinochloa crus-galli; settings: for Post-emergence effect against ECHCG: 20 g/ha, visual rating about 3 weeks after treatment
In short: as §1

[9] = system: LOLRI; test: as above; assay type: in vivo, Lolium rigidum; settings: 320 g/ha
In short: as §1

[10] = system: MATIN; test: as above; assay type: in vivo, Tripleurospermum inodorum
In short: as §1

[11] = system: PHBPU; test: as above; assay type: in vivo, Ipomoea purpurea
In short: as §1

[12] = system: POLCO; test: as above; assay type: in vivo, Fallopia convolvulus
In short: as §1

[13] = system: SETVI; test: as above; assay type: in vivo, Setaria viridis
In short: as §1

[14] = system: VERPE; test: as above; assay type: in vivo, Veronica persica
In short: as §1

[15] = system: VIOTR; test: as above; assay type: in vivo, Viola tricolor
In short: as §1

[16] = system: various unwanted plants; test: Pre-emergence effect against various unwanted plants (PE): comparative test of I-01 with compounds from WO2020/245044 (Tables 40a, 40b) and summary statements; assay type: in vivo; settings: comparative test
Source text: Seeds of monocotyledonous and dicotyledonous weed plants and crop plants are placed in plastic or organic planting pots and covered with soil. The compounds of the invention, formulated in the form of wettable powders (WP) or as emulsion concentrates (EC), are then applied to the surface of the covering soil as aqueous suspension or emulsion with addition of 0.5% additive at a water application rate equivalent to 600 l/ha. After the treatment, the pots are placed in a greenhouse and kept under good growth conditions for the trial plants. After about 3 weeks, the effect of the preparations is scored visually in comparison with untreated controls as percentages. For example, 100% activity=the plants have died, 0% activity=like control plants. Tables 40a and 40b below show the effects of the inventive compound (I-01) with structurally similar compounds (from WO2020/245044) on various harmful plants at an application rate corresponding to 320 g/ha or less, which have been obtained by the trial procedure specified hereinafter. The inventive compound (I-01) differs here by variance of a significant structural feature from the structurally similar compound with regard to the R^2 radical. Seeds of monocotyledonous and dicotyledonous weed plants and crop plants are placed in plastic or organic planting pots and covered with soil. The compounds of the invention, formulated in the form of wettable powders (WP) or as emulsion concentrates (EC), are then applied to the surface of the covering soil as aqueous suspension or emulsion with addition of 0.5% additive at a water application rate equivalent to 600 l/ha. After the treatment, the pots are placed in a greenhouse and kept under good growth conditions for the trial plants. After about 3 weeks, the effect of the preparations is scored visually in comparison with untreated controls as percentages. For example, 100% activity=the plants have died, 0% activity=like control plants. Effects/crop compatibilities of selected compounds (Table 39) on various harmful plants at an application rate corresponding to 80 to 320 g/ha that have been obtained by the trial procedure specified hereinabove are shown in Tables 40a and 40b below.

[17] = system: various unwanted plants; test: Post-emergence effect against various unwanted plants (PO): comparative test of I-01 with compounds from WO2020/245044 (Tables 41a, 41b) and summary statements; assay type: in vivo; settings: 80 g/ha, comparative test
Method: Seeds of monocotyledonous and dicotyledonous weeds and crop plants are placed in sandy loam in plastic or organic planting pots, covered with soil and cultivated in a greenhouse under controlled growth conditions. 2 to 3 weeks after sowing, the trial plants are treated at the one-leaf stage. The compounds of the invention, formulated in the form of wettable powders (WP) or as emulsion concentrates (EC), are then sprayed onto the green parts of the plants as aqueous suspension or emulsion with addition of 0.5% additive at a water application rate of 600 l/ha (converted). After the test plants have been kept in the greenhouse under optimum growth conditions for about 3 weeks, the activity of the preparations is rated visually in comparison to untreated controls. For example, 100% activity=the plants have died, 0% activity=like control plants. […] Tables 41a and 41b below show the effects of the inventive compound (I-01) with structurally similar compounds (WO2020/245044) on various harmful plants at an application rate corresponding to 320 g/ha or less, which have been obtained by the trial procedure specified hereinafter. The inventive compound (I-01) differs here by variance of a significant structural feature from the structurally similar compound with regard to the R^2 radical. Seeds of monocotyledonous and dicotyledonous weeds and crop plants are placed in sandy loam in plastic or organic planting pots, covered with soil and cultivated in a greenhouse under controlled growth conditions. 2 to 3 weeks after sowing, the trial plants are treated at the one-leaf stage. The compounds of the invention, formulated in the form of wettable powders (WP) or as emulsion concentrates (EC), are then sprayed onto the green parts of the plants as aqueous suspension or emulsion with addition of 0.5% additive at a water application rate of 600 l/ha (converted). After the test plants have been kept in the greenhouse under optimum growth conditions for about 3 weeks, the activity of the preparations is rated visually in comparison to untreated controls. For example, 100% activity=the plants have died, 0% activity=like control plants. Effects/crop compatibilities of selected compounds (see Table 39) on various harmful plants at an application rate corresponding to 80 to 320 g/ha that have been obtained by the trial procedure specified hereinafter are shown in Tables 41a and 41b below.

| Compound | Post-emergence effect at 20 g/ha against ZEAMX in % [1] [%] | Post-emergence effect against ORYSA [2] [%] | Post-emergence effect against ABUTH ([3]; 80 g/ha) [%] | Post-emergence effect against ABUTH ([3]; 320 g/ha) [%] | Post-emergence effect against ALOMY ([4]; 320 g/ha) [%] | Post-emergence effect against AMARE ([5]; 80 g/ha) [%] | Post-emergence effect against AMARE ([5]; 320 g/ha) [%] | Post-emergence effect against AVEFA [6] [%] | Post-emergence effect against DIGSA ([7]; 320 g/ha) [%] | Post-emergence effect against ECHCG in % ([8]; 80 g/ha) [%] | Post-emergence effect against ECHCG in % ([8]; 320 g/ha) [%] | Post-emergence effect against MATIN in % ([10]; 80 g/ha) [%] | Post-emergence effect against MATIN in % ([10]; 320 g/ha) [%] | Post-emergence effect against PHBPU in % ([11]; 320 g/ha) [%] | Post-emergence effect against POLCO in % ([12]; 320 g/ha) [%] | Post-emergence effect against SETVI in % ([13]; 80 g/ha) [%] | Post-emergence effect against SETVI in % ([13]; 320 g/ha) [%] | Post-emergence effect against VERPE in % ([14]; 80 g/ha) [%] | Post-emergence effect against VERPE in % ([14]; 320 g/ha) [%] | Post-emergence effect against VIOTR in % ([15]; 320 g/ha) [%] | also measured |
| --- | --- | --- | --- | --- | --- | --- | --- | --- | --- | --- | --- | --- | --- | --- | --- | --- | --- | --- | --- | --- | --- |
| COC(=O)C(C)COC(=O)C(OC)Oc1nn(-c2ccccc2F)c(-c2ccc(F)nc2)c1Br (racemic) [Example I-10] | 20 | 10 | 90 | 90 | 90 | 80 | 100 | 80 | 90 | 90 | 100 | 80 | 90 | 90 | 80 | 80 | 90 | 90 | 90 | 90 | Post-emergence effect against ABUTH ([3]; 20 g/ha): 80%; Post-emergence effect against AMARE ([5]; 20 g/ha): 80%; Post-emergence effect against ECHCG [8]: 80%; Post-emergence effect against LOLRI in % [9]: 90%; Post-emergence effect against MATIN in % ([10]; 20 g/ha): 80%; Post-emergence effect against PHBPU in % ([11]; 80 g/ha): 80%; Post-emergence effect against POLCO in % ([12]; 20 g/ha): 80%; Post-emergence effect against POLCO in % ([12]; 80 g/ha): 80%; Post-emergence effect against VIOTR in % ([15]; 80 g/ha): 80% |
| COC(=O)CCOC(=O)C(OC)Oc1nn(-c2ccccc2F)c(-c2ccc(F)nc2)c1Br (single isomer, unassigned) [Example I-13] | 10 | 10 | – | 80 | 90 | – | 80 | 80 | 90 | 90 | 90 | 80 | 80 | 90 | 80 | 80 | 90 | 80 | 80 | 80 | Post-emergence effect at 80 g/ha against ZEAMX in % [1]: 20%; Post-emergence effect against ALOMY ([4]; 80 g/ha): 80%; Post-emergence effect against DIGSA ([7]; 80 g/ha): 90%; Post-emergence effect against ECHCG [8]: 80%; Post-emergence effect against LOLRI in % [9]: 80%; Post-emergence effect against POLCO in % ([12]; 80 g/ha): 80% |
| COC(=O)CCOC(=O)C(OC)Oc1nn(-c2ccccc2F)c(-c2ccc(F)nc2)c1Br (single isomer, unassigned) [Example I-20] | 0 | 0 | 80 | 90 | 80 | 80 | 90 | 90 | 90 | 80 | 90 | 80 | 90 | 90 | 80 | 80 | 80 | 80 | 90 | 90 | Post-emergence effect at 80 g/ha against ZEAMX in % [1]: 20%; Post-emergence effect against PHBPU in % ([11]; 80 g/ha): 80%; Post-emergence effect against VIOTR in % ([15]; 80 g/ha): 80% |
| CCOC(=O)C(F)Oc1nn(-c2ccccc2F)c(-c2ccc(F)nc2)c1Br (stereo not drawn) [C] | – | – | – | – | – | – | – | – | – | – | – | – | – | – | – | – | – | – | – | – | Pre-emergence effect, Effect %, ALOMY ([16]; ALOMY, 320 g/ha): 80%; Pre-emergence effect, Effect %, ECHCG ([16]; 80 g/ha): 0%; Pre-emergence effect, Effect %, ECHCG ([16]; 320 g/ha): 70%; Pre-emergence effect, Effect %, LOLRI ([16]; 80 g/ha): 10%; Pre-emergence effect, Effect %, LOLRI ([16]; 320 g/ha): 90%; Pre-emergence effect, Effect %, MATIN ([16]; 80 g/ha): 70%; Pre-emergence effect, Effect %, MATIN ([16]; 320 g/ha): 80%; Pre-emergence effect, Effect %, POLCO ([16]; POLCO, 80 g/ha): 50%; Pre-emergence effect, Effect %, SETVI ([16]; SETVI, 320 g/ha): 70%; Post-emergence effect, Effect %, ALOMY ([17]; ALOMY): 50%; Post-emergence effect, Effect %, AVEFA ([17]; AVEFA): 60%; Post-emergence effect, Effect %, ECHCG ([17]; ECHCG): 80%; Post-emergence effect, Effect %, LOLRI ([17]; LOLRI): 10%; Post-emergence effect, Effect %, SETVI ([17]; SETVI): 70% |
